According to US7919508B2, “3-piperidinylisochroman-5-ols as dopamine agonists” (Aventis Pharmaceuticals Inc., priority 2004, dated 2011):
Where a name gives a salt, the structure may show the parent alone.

Key:
[1] = molecular target: T1, human dopamine D1 receptor (Homo sapiens, UniProt P21728); test: [3H]-SCH-23390 binding to cloned human dopamine D1 receptors (CHO cell membranes); details: competitive binding, [3H]-SCH-23390, cloned human D1 in CHO membranes; read-out: D1 affinity Ki
T1 construct: A 1.4 Kb Hind III to Xho I fragment was subcloned into the vector pMMLV; expressed in transfected cells; host or cells: CHO cells, clone CHO-D1M#9 (plasmid pHD1MMLV), membranes
T1 sequence (P21728 whole entry, the tested form may be a part): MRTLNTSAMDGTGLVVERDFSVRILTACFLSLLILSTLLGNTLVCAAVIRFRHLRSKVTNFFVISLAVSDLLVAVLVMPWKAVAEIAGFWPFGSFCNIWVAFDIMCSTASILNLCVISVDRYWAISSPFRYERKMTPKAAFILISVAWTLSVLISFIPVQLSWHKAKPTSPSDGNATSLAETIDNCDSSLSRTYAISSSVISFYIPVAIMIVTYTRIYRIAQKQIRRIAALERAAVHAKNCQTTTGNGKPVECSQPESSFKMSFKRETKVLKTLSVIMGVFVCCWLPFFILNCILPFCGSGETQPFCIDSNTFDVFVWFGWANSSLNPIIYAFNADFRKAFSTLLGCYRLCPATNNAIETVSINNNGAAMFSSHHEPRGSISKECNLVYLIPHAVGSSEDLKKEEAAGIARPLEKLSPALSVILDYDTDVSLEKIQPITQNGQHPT
Method: [^3H]-SCH-23390 Binding to Cloned Human Dopamine D1 Receptors
Determination of relative binding affinity of potential neuropsychiatric and other agents for the human dopamine D1 receptor.
The human D, cDNA was obtained from the laboratory of Dr. Marc Caron in the vector pCMV5. A 1.4 Kb Hind III to Xho I fragment was subcloned into the vector pMMLV. The plasmid pHD1MMLV was then sequenced completely. Transient transfections in COS-7 cells were performed and D1 specific binding was obtained. The construct pHD1MMLV was then transfected stably into CHO cells and 72 G418-resistant clones were isolated. High expressors were identified by mRNA dot blot analysis. Six high expressors were further characterized by binding and then clone CHO-D1M#9 was chosen for detailed pharmacological characterization. This clone was then grown in suspension culture for the purpose of obtaining enough protein to accommodate several months of screening.
B. Cell Culture Conditions
• 1. […] Cells are transferred to suspension culture when at least […] are available (this allows for 300,000 cells/ml in a 50 ml spinner flask; this is the ideal suspension density). Cells are removed from flasks with trypsin, spun down at 1000×G and resuspended the pellet in fresh medium: • 50% CHO-SFM-II+50% Ham's F12 w/10% FBS (final FBS conc. 5%)+400 μg/ml G418+1% P/S. • 3. After the transfer to suspension culture, growth is monitored and cell viability is assessed using trypan blue exclusion. Total and viable cell count on 5 sectors of the hemocytometer are recorded. When the viable cell density reaches 600,000 cell/ml, the volume is doubled. • 4. After 1 week of growth in the 50/50 medium, the cells are spun down and transferred to a new spinner flask and replaced with 75% CHO-SFM II/25% Ham's F12+10% FBS plus the pen-strep and G418. Thereafter every 3 days, the medium is replaced with new medium containing a decreasing amount of FBS as follows:
• 5. The final maintenance culturing medium is made up as follows: • A stock mixture of 10 ml of pen-strep, 0.5 ml of […] (active; final concentration: 200 μg/ml) G418 and 1 ml of FBS are mixed and filtered and refrigerated. A volume (11.5 ml) of this mixture is added to a freshly opened 1 L bottle of CHO-SFM II. C. Membrane Preparation
Cells are harvested into 250 ml centrifuge tubes and spun down at 1200×G. The medium is removed and 100 ml PBS (phosphate-buffered saline) is added to each centrifuge tube; cells are resuspended and spun down again. The PBS is removed and the final pellet is homogenized with a polytron on ice at a medium setting.
The membrane suspension is diluted in water and samples (10, 50 and 100 μl; q.s. to 100 μl with water) are diluted with 100 μl of 1% SDS. The sample is vortexed and allowed to stand for 5 min. Two aliquots each of the solubilized protein sample are placed in clean 13×100 test tubes for the assay. Instructions are followed as outlined in the BioRad DC protein determination kit (Catalog # 500-0112). OD readings that fall between 0.1-0.5 (mid-range of standard curve) should typically be used for calculations. Protein concentrations are calculated from a standard curve using bovine serum albumin as standard by linear regression and interpolation.
Following cell harvesting and protein determination, the homogenate is diluted with 10% DMSO to the correct volume based on Bmax and relative size of individual experiments to be conducted. The concentrated protein is stored in cryogenic vials in aliquots of 1-1.5 ml. Samples may be stored in −80° C. freezer or in liquid nitrogen.

[2] = molecular target: human dopamine D2Long (D2L) receptors (Homo sapiens, UniProt P14416)
Chain of human dopamine D2Long (D2L) receptors (P14416 whole entry): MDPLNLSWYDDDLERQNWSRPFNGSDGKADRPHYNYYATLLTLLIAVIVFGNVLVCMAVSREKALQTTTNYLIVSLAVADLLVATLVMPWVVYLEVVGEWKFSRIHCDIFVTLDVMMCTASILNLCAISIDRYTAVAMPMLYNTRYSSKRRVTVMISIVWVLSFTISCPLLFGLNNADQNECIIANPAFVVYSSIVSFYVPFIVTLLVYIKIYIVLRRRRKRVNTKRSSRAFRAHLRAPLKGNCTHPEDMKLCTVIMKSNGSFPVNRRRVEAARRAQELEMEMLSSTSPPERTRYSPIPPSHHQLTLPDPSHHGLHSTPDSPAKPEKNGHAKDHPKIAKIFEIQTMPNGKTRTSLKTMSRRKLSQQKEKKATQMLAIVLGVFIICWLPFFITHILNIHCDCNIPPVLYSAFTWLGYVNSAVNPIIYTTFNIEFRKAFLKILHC

Ki [1]	Ki [2]	Structure (SMILES)
265 nM	552 nM	CNC[C@@H]1O[C@H](C2CCN(CC3CCCCC3)CC2)Cc2c1ccc(C)c2O [Example 96, (1R,3S)-3-(1-Cyclohexylmethyl-piperidin-4-yl)-6-methyl-1-methylaminomethyl-isochroman-5-ol dihydrochloride]
92 nM	751 nM	Cc1ccc2c(c1O)C[C@@H](C1CCN(C(=O)OCc3ccccc3)CC1)O[C@H]2CN [Example 122, 4-((1R,3S)-1-Aminomethyl-5-hydroxy-6-methyl-isochroman-3-yl)-piperidine-1-carboxylic acid benzyl ester hydrochloride]
105 nM	≥ 10000 nM	Cc1ccc2c(c1O)C[C@@H](C1CCN(C(=O)Nc3ccccc3O)CC1)O[C@H]2CN [Example 127, 4-((1R,3S)-1-Aminomethyl-5-hydroxy-6-methyl-isochroman-3-yl)-piperidine-1-carboxylic acid (2-hydroxy-phenyl)-amide hydrochloride]
256 nM	≥ 100000 nM	Cc1ccc2c(c1O)C[C@@H](C1CCN(C(=O)N(C)C)CC1)O[C@H]2CN [Example 132, 4-((1R,3S)-1-Aminomethyl-5-hydroxy-6-methyl-isochroman-3-yl)-piperidine-1-carboxylic acid dimethylamide hydrochloride]
241 nM	≥ 100000 nM	Cc1ccc2c(c1O)C[C@@H](C1CCN(C(=O)N(C(C)C)C(C)C)CC1)O[C@H]2CN [Example 133, 4-((1R,3S)-1-Aminomethyl-5-hydroxy-6-methyl-isochroman-3-yl)-piperidine-1-carboxylic acid diisopropylamide hydrochloride]
240 nM	≥ 100000 nM	Cc1ccc2c(c1O)C[C@@H](C1CCN(C(=O)N3CCOCC3)CC1)O[C@H]2CN [Example 134, [4-((1R,3S)-1-Aminomethyl-5-hydroxy-6-methyl-isochroman-3-yl)-piperidin-1-yl]-morpholin-4-yl-methanone hydrochloride]
162 nM	≥ 100000 nM	CCN(CC)C(=O)N1CCC([C@@H]2Cc3c(ccc(C)c3O)[C@H](CN)O2)CC1 [Example 136, 4-((1R,3S)-1-Aminomethyl-5-hydroxy-6-methyl-isochroman-3-yl)-piperidine-1-carboxylic acid diethylamide hydrochloride]
412 nM	163 nM	Cc1ccc2c(c1O)C[C@@H](C1CCN(C(=O)N3c4ccccc4Sc4ccccc43)CC1)O[C@H]2CN [Example 137, [4-((1R,3S)-1-Aminomethyl-5-hydroxy-6-methyl-isochroman-3-yl)-piperidin-1-yl]-phenothiazin-10-yl-methanone hydrochloride]
198 nM	≥ 100000 nM	Cc1ccc2c(c1O)C[C@@H](C1CCN(C(=O)N3CCCCC3)CC1)O[C@H]2CN [Example 138, [4-((1R,3S)-1-Aminomethyl-5-hydroxy-6-methyl-isochroman-3-yl)-piperidin-1-yl]-piperidin-1-yl-methanone hydrochloride]
193 nM	≥ 100000 nM	Cc1ccc2c(c1O)C[C@@H](C1CCN(S(=O)(=O)c3ccccc3)CC1)O[C@H]2CN [Example 141, (1R,3S)-1-Aminomethyl-3-(1-benzenesulfonyl-piperidin-4-yl)-6-methyl-isochroman-5-ol hydrochloride]
167 nM	777 nM	Cc1ccc2c(c1O)C[C@@H](C1CCN(S(=O)(=O)c3ccccc3C(F)(F)F)CC1)O[C@H]2CN [Example 143, (1R,3S)-1-Aminomethyl-6-methyl-3-[1-(2-trifluoromethyl-benzenesulfonyl)-piperidin-4-yl]-isochroman-5-ol hydrochloride]
146 nM	288 nM	Cc1ccc2c(c1O)C[C@@H](C1CCN(S(=O)(=O)c3ccc(C(C)C)cc3)CC1)O[C@H]2CN [Example 145, (1R,3S)-1-Aminomethyl-3-[1-(4-isopropyl-benzenesulfonyl)-piperidin-4-yl]-6-methyl-isochroman-5-ol hydrochloride]
183 nM	≥ 100000 nM	Cc1ccc2c(c1O)C[C@@H](C1CCN(S(=O)(=O)c3ccc(Cl)cc3)CC1)O[C@H]2CN [Example 148, (1R,3S)-1-Aminomethyl-3-[1-(4-chloro-benzenesulfonyl)-piperidin-4-yl]-6-methyl-isochroman-5-ol hydrochloride]
213 nM	589 nM	Cc1ccc2c(c1O)C[C@@H](C1CCN(S(=O)(=O)c3ccc(Cl)cc3Cl)CC1)O[C@H]2CN [Example 149, (1R,3S)-1-Aminomethyl-3-[1-(2,4-dichloro-benzenesulfonyl)-piperidin-4-yl]-6-methyl-isochroman-5-ol hydrochloride]
256 nM	≥ 100000 nM	Cc1ccc2c(c1O)C[C@@H](C1CCN(S(=O)(=O)c3ccc(Cl)c(Cl)c3)CC1)O[C@H]2CN [Example 150, (1R,3S)-1-Aminomethyl-3-[1-(3,4-dichloro-benzenesulfonyl)-piperidin-4-yl]-6-methyl-isochroman-5-ol hydrochloride]
169 nM	≥ 100000 nM	Cc1ccc2c(c1O)C[C@@H](C1CCN(S(=O)(=O)c3ccc(-c4ccccc4)cc3)CC1)O[C@H]2CN [Example 152, (1R,3S)-1-Aminomethyl-3-[1-(biphenyl-4-sulfonyl)-piperidin-4-yl]-6-methyl-isochroman-5-ol hydrochloride]
250 nM	≥ 100000 nM	CCS(=O)(=O)N1CCC([C@@H]2Cc3c(ccc(C)c3O)[C@H](CN)O2)CC1 [Example 153, (1R,3S)-1-Aminomethyl-3-(1-ethanesulfonyl-piperidin-4-yl)-6-methyl-isochroman-5-ol hydrochloride]
270 nM	≥ 100000 nM	CCCCS(=O)(=O)N1CCC([C@@H]2Cc3c(ccc(C)c3O)[C@H](CN)O2)CC1 [Example 154, (1R,3S)-1-Aminomethyl-3-[1-(butane-1-sulfonyl)-piperidin-4-yl]-6-methyl-isochroman-5-ol hydrochloride]
217 nM	≥ 100000 nM	Cc1ccc2c(c1O)C[C@@H](C1CCN(S(=O)(=O)C(C)C)CC1)O[C@H]2CN [Example 155, (1R,3S)-1-Aminomethyl-6-methyl-3-[1-(Propane-2-sulfonyl)-piperidin-4-yl]-isochroman-5-ol hydrochloride]
139 nM	≥ 100000 nM	CCCCCCCCS(=O)(=O)N1CCC([C@@H]2Cc3c(ccc(C)c3O)[C@H](CN)O2)CC1 [Example 156, (1R,3S)-1-Aminomethyl-6-methyl-3-[1-(octane-1-sulfonyl)-piperidin-4-yl]-isochroman-5-ol hydrochloride]
264 nM	≥ 100000 nM	Cc1ccc2c(c1O)C[C@@H](C1CCN(S(=O)(=O)Cc3ccc(Cl)c(Cl)c3)CC1)O[C@H]2CN [Example 160, (1R,3S)-1-Aminomethyl-3-[1-(3,4-dichloro-phenylmethanesulfonyl)-piperidin-4-yl]-6-methyl-isochroman-5-ol hydrochloride]
382 nM	≥ 100000 nM	Cc1ccc2c(c1O)C[C@@H](C1CCN(S(=O)(=O)C[C@@]34CC[C@@H](CC3=O)C4(C)C)CC1)O[C@H]2CN [Example 162, 1(R)-[4-((1R,3S)-1-Aminomethyl-5-hydroxy-6-methyl-isochroman-3-yl)-piperidine-1-sulfonylmethyl]-7,7-dimethyl-bicyclo[2.2.1]heptan-2-one hydrochloride]
